Calls of active or inactive are those of the source. The rule behind the calls is not given here.
What was measured:
[1] = Inhibition of amyloid beta (1-42) fibril formation after 24 hrs by thioflavin T fluorescence method
N2a [2] = test: Neurotoxicity against mouse N2A cells after 24 hrs by MTS assay; format: toxicity, cell-based
N2a [3] = test: Neuroprotective activity against amyloid beta-induced neurotoxicity in mouse N2A cells after 24 hrs by MTS assay; format: functional, cell-based
[4] = Inhibition of amyloid beta (1-42) self-aggregation after 24 hrs by sedimentation assay with ELISA
[5] = Inhibition of amyloid beta (1-42) self-aggregation at 4uM after 24 hrs by sedimentation assay with ELISA

Row | IC50 [4] [nM] | inhibition [5] [%] | Compound | Activity [1] | Activity (N2a [2]) | Activity (N2a [3])
1 |  |  | COC(=O)C[C@](O)(CCC(C)(C)O)C(=O)O[C@@H]1C(OC)=C[C@]23CCCN2CCc2cc4c(cc2[C@H]13)OCO4 [HARRINGTONINE] | inactive | Non-toxic | inactive
2 | 1950 | 80 | O=C(Cc1ccccc1)NC(CSSCC(NC(=O)Cc1ccccc1)C(=O)O)C(=O)O (centres undefined) |  | Non-toxic | 
3 | 2750 | 80 | CNc1ccc(C(=O)NC(CCCCNC(=O)OCc2ccccc2)C(=O)O)cc1 (centres undefined) |  | Non-toxic | 
